What all share (test): MTS assay, inhibition of cell growth
Assay type in all cases: cell-based
On the technique in general: Tetrazolium dyes change colour on reduction, which living cells bring about.

For experiment [1], the system named is DLD-1 cells. The conditions noted are these: Homo sapiens, compound at 10 μM, 72 hours. The method, then: (§1) MDA-MB-231, DLD-1, Kato III NCI-H1299, PACA-2 cells, were maintained at 37° C., 5% CO2 in DMEM media supplemented with 10% fetal bovine serum, penicillin/streptomycin and fungizone (Invitrogen). Cells were seeded into 96-well tissue culture plates at 3000 per well and cultured at 37° C. for 18 hours. Test compounds were dissolved and diluted to 300× in DMSO then further diluted 1:40 in DMEM before addition to cells (1:7.5 dilution). Cells were incubated with test compounds for 72 hours followed by incubation with tetrazolium compound (3-(4,5-dimethylthiazol-2-yl)-5-(3-carboxymethoxyphenyl)-2-(4-sulfophenyl)-2H-tetrazolium, inner salt; MTS) and the electron coupling reagent, phenazine methosulfate (PMS) for 4 hours. […] The ability of compounds to inhibit cell growth in this assay is correlated with the reduction of dehydrogenase enzyme activity found in metabolically active cells. The measurement of the absorbance of the formazan was assessed using an ENVISION™ (Perkin Elmer) microplate reader at 492 nm.

The subject of experiment [2] is Kato III cells. The conditions noted are these: Homo sapiens, compound at 10 μM, 72 hours. The method, then:
as §1

Experiment [3] deals with MDA-MB-231 cells. The settings on record: Homo sapiens, compound at 10 μM, 72 hours. The method, then:
as §1

The subject of experiment [4] is NCI-H1299 cells. The settings on record: Homo sapiens, compound at 10 μM, 72 hours. The method, then:
as §1

Experiment [5] deals with PACA-2 cells. The settings on record: compound at 10 μM, 72 hours. The method, then: as §1

SMILES strings stand for the structures. Bounds are passed on as bounds.

For `O=C(NCCc1ccccc1)NC1CCc2c(cnc3[nH]ncc23)C1` (stereo not drawn) [1-(2-phenylethyl)-3-(6,7,8,9-tetrahydro-3H-pyrazolo[3,4-c]isoquinolin-7-yl)urea], the inhibition at 10 µM in experiment [1], in experiment [2], in experiment [3], in experiment [4] and in experiment [5] was 75 to 100% throughout.

Take `O=C(Nc1cccc(Cl)c1F)NC1CCc2c(cnc3[nH]ncc23)C1` (stereo not drawn) [1-(3-chloro-2-fluorophenyl)-3-(6,7,8,9-tetrahydro-3H-pyrazolo[3,4-c]isoquinolin-7-yl)urea]: the inhibition at 10 µM in experiment [1], in experiment [2], in experiment [3], in experiment [4] and in experiment [5] was 75 to 100% throughout.

`Cc1ccc(-c2n[nH]c3ncc4c(c23)CCN(C(=O)Nc2ccccc2)C4)o1` [1-(5-methylfuran-2-yl)-N-phenyl-3,6,8,9-tetrahydro-7H-pyrazolo[3,4-c][2,7]naphthyridine-7-carboxamide]: the inhibition at 10 µM in experiment [1], in experiment [2], in experiment [3], in experiment [4] and in experiment [5] was 75 to 100% throughout.

As to `O=C(C(c1ccccc1)N1CCNCC1)N1CCc2c(cnc3[nH]nc(Br)c23)C1` (stereo not drawn) [1-bromo-7-[phenyl(piperperazin-1-yl)acetyl]-6,7,8,9-tetrahydro-3H-pyrazolo[3,4-c][2,7]naphthyridine], the inhibition at 10 µM in experiment [1], in experiment [2], in experiment [3], in experiment [4] and in experiment [5] was 75 to 100% in each case.

In the case of `O=C(Nc1cccc(Oc2ccccc2)c1)N1CCc2c(cnc3[nH]nc(Br)c23)C1` [1-bromo-N-(3-phenoxyphenyl)-3,6,8,9-tetrahydro-7H-pyrazolo[3,4-c][2,7]naphthyridine-7-carboxamide], the inhibition (usually the change of the read-out against control, counted positive when it falls) at 10 µM is 75 to 100% in experiment [1]; 75 to 100% in experiment [2]; 25 to 49% in experiment [3]; 50 to 74% in experiment [4]; 50 to 74% in experiment [5].

As to `Cc1ccc(C)c(S(=O)(=O)NC2CCc3c(cnc4[nH]ncc34)C2)c1` (stereo not drawn) [2,5-dimethyl-N-(6,7,8,9-tetrahydro-3H-pyrazolo[3,4-c]isoquinolin-7-yl)benzenesulfonamide], the inhibition at 10 µM in experiment [1], in experiment [2], in experiment [3], in experiment [4] and in experiment [5] was 75 to 100% each time.

On to `COc1ccc(Cn2ncc3c4c(cnc32)CCc2[nH]c(=O)ccc2-4)cc1` [3-(4-methoxybenzyl)-3,6,7,8-tetrahydro-9H-pyrazolo[4,3-a][3,7]phenanthrolin-9-one], for which the inhibition at 10 µM in experiment [1], in experiment [2], in experiment [3], in experiment [4] and in experiment [5] was 75 to 100% each time.

For the molecule `CNc1ncc2c(n1)CCc1cnc3c(cnn3Cc3ccc(OC)cc3)c1-2` [3-(4-methoxybenzyl)-N-methyl-6,7-dihydro-3H-pyrazolo[4′,3′:5,6]pyrido[4,3-f]quinazolin-9-amine], the inhibition at 10 µM in experiment [1] is 75 to 100%; in experiment [2], 75 to 100%; in experiment [3] it was 75 to 100%; in experiment [4], less than 24%; in experiment [5], 75 to 100%.

Take `Nc1nc(N2CCc3c(cnc4[nH]ncc34)C2)c2cn[nH]c2n1` [4-(3,6,8,9-tetrahydro-7H-pyrazolo[3,4-c][2,7]naphthyridin-7-yl)-1H-pyrazolo[3,4-d]pyrimidin-6-amine]: the inhibition at 10 µM lay within 75 to 100% in experiment [1]; 75 to 100% in experiment [2]; 50 to 74% in experiment [3]; 25 to 49% in experiment [4]; 75 to 100% in experiment [5].

Regarding `c1nc2[nH]ncc2c2c1CNCC2` [6,7,8,9-tetrahydro-3H-pyrazolo[3,4-c][2,7]naphthyridine], the inhibition at 10 µM fell in the range of 75 to 100% in experiment [1]; 25 to 49% in experiment [2]; 75 to 100% in experiment [3]; 25 to 49% in experiment [4]; 75 to 100% in experiment [5].

As to `c1cc2c(s1)CCc1cnc3[nH]ncc3c1-2` [6,7-dihydro-3H-pyrazolo[3,4-c]thieno[3,2-f]isoquinoline], the inhibition at 10 µM in experiment [1], in experiment [2], in experiment [3], in experiment [4] and in experiment [5] was 75 to 100% in each case.

On to `Nc1nc(N)nc(N2CCc3c(cnc4[nH]ncc34)C2)n1` [6-(3,6,8,9-tetrahydro-7H-pyrazolo[3,4-c][2,7]naphthyridin-7-yl)-1,3,5-triazine-2,4-diamine], for which the inhibition at 10 µM in experiment [1], in experiment [2], in experiment [3], in experiment [4] and in experiment [5] was 75 to 100% throughout.

In the case of `Nc1nc(N2CCc3c(cnc4[nH]ncc34)C2)c2nc[nH]c2n1` [6-(3,6,8,9-tetrahydro-7H-pyrazolo[3,4-c][2,7]naphthyridin-7-yl)-9H-purin-2-amine], the inhibition at 10 µM in experiment [1], in experiment [2], in experiment [3], in experiment [4] and in experiment [5] was 75 to 100% each time.

With `Cc1cc(NC2CCc3c(cnc4[nH]ncc34)C2)nc(N)n1` (stereo not drawn) [6-methyl-N~4~-(6,7,8,9-tetrahydro-3H-pyrazolo[3,4-c]isoquinolin-7-yl)pyrimidine-2,4-diamine], the inhibition at 10 µM in experiment [1] is 75 to 100%; in experiment [2], 75 to 100%; in experiment [3] it was 75 to 100%; in experiment [4], 25 to 49%; in experiment [5], 75 to 100%.

For `Clc1ccccc1C1Cc2cnc3[nH]nc(-c4cnn(C5CCNCC5)c4)c3c2-c2ccccc21` (stereo not drawn) [7-(2-chlorophenyl)-1-(1-piperidin-4-yl-1H-pyrazol-4-yl)-6,7-dihydro-3H-benzo[f]pyrazolo[3,4-c]isoquinoline], the inhibition at 10 µM in experiment [1], in experiment [2], in experiment [3], in experiment [4] and in experiment [5] was 75 to 100% each time.

For the molecule `O=S(=O)(c1cccs1)N1CCc2c(cnc3[nH]ncc23)C1` [7-(2-thienylsulfonyl)-6,7,8,9-tetrahydro-3H-pyrazolo[3,4-c][2,7]naphthyridine], the inhibition at 10 µM in experiment [1], in experiment [2], in experiment [3], in experiment [4] and in experiment [5] was 75 to 100% in each case.

Consider `CS(=O)(=O)N1CCc2c(cnc3[nH]ncc23)C1` [7-(methylsulfonyl)-6,7,8,9-tetrahydro-3H-pyrazolo[3,4-c][2,7]naphthyridine], for which the inhibition at 10 µM in experiment [1], in experiment [2], in experiment [3], in experiment [4] and in experiment [5] was 75 to 100% each time.

Regarding `COc1ccc(S(=O)(=O)N2CCc3c(cnc4[nH]ncc34)C2)cc1OC` [7-[(3,4-dimethoxyphenyl)sulfonyl]-6,7,8,9-tetrahydro-3H-pyrazolo[3,4-c][2,7]napthyridine], the inhibition at 10 µM in experiment [1], in experiment [2], in experiment [3], in experiment [4] and in experiment [5] was 75 to 100% throughout.

Consider `COc1ccc(CN2CCN(C(=O)N3CCc4c(cnc5[nH]ncc45)C3)CC2)cc1` [7-{[4-(4-methoxybenzyl)piperazin-1-yl]carbonyl}-6,7,8,9-tetrahydro-3H-pyrazolo[3,4-c][2,7]naphthyridine], for which the inhibition at 10 µM is 75 to 100% in experiment [1]; 75 to 100% in experiment [2]; 75 to 100% in experiment [3]; less than 24% in experiment [4]; 75 to 100% in experiment [5].

On to `Clc1ccccc1CN1CCN(c2ncc3c(n2)CCc2cnc4[nH]ncc4c2-3)CC1` [9-[4-(2-chlorobenzyl)piperazin-1-yl]-6,7-dihydro-3H-pyrazolo[4′3′:5,6]pyrido[4,3-f]quinazoline], for which the inhibition at 10 µM in experiment [1], in experiment [2], in experiment [3], in experiment [4] and in experiment [5] was 75 to 100% in each case.

Consider `CN(C)CCNC(C(=O)N1CCc2c(cnc3[nH]nc(-c4ccccc4)c23)C1)c1ccccc1` (stereo not drawn) [N,N-dimethyl-N′-[2-oxo-1-phenyl-2-(1-phenyl-3,6,8,9-tetrahydro-7H-pyrazolo[3,4-c][2,7]napthyridin-7-yl)ethyl]ethane-1,2-diamine], for which the inhibition at 10 µM in experiment [1], in experiment [2], in experiment [3], in experiment [4] and in experiment [5] was 75 to 100% each time.
